Assay results taken from ChEMBL document CHEMBL3351904, “Synthesis of new bioisosteric hemiasterlin analogues with extremely high cytotoxicity” (Bioorg Med Chem Lett, 2014).

Key:
HepG2 = experiment: Cytotoxicity against human HepG2 cells assessed as reduction in cell growth after 3 days by MTT assay; format: functional, cell-based; details: HepG2, 72 h
KB = experiment: Cytotoxicity against human KB cells assessed as reduction in cell growth after 3 days by MTT assay; format: functional, cell-based; details: 72 h

**Q.** With CCOC(=O)/C(C)=C/[C@H](C(C)C)N(C)C(=O)[C@@H](NC(=O)[C@@H](NC)C(C)(C)c1ccc(Br)cc1)C(C)(C)C as the compound, how does the IC50 (HepG2) read?
**A.** The IC50 was 6 nM.

**Q.** And the IC50 (KB)?
**A.** Its IC50 is 12 nM.

**Q.** With CCOC(=O)/C(C)=C/[C@H](C(C)C)N(C)C(=O)[C@@H](NC(=O)[C@H](NC)C(C)(C)c1ccc(Br)cc1)C(C)(C)C as the compound, how does the IC50 (HepG2) read?
**A.** The IC50 was 10 nM.

**Q.** And the IC50 (KB)?
**A.** Its IC50 is 172 nM.

**Q.** Which IC50 (HepG2) does the source give for CCOC(=O)/C(C)=C/[C@H](C(C)C)N(C)C(=O)[C@@H](NC(=O)[C@@H](NC)C(C)(C)c1coc2ccccc12)C(C)(C)C here?
**A.** Its IC50 is 11 nM.

**Q.** What about the IC50 (KB) of the same compound?
**A.** The IC50 was 13 nM.

**Q.** Which results are given for CCOC(=O)/C(C)=C/[C@H](C(C)C)N(C)C(=O)[C@@H](NC(=O)[C@H](NC)C(C)(C)c1coc2ccccc12)C(C)(C)C?
**A.** IC50 (HepG2): 730 nM; IC50 (KB): 760 nM

**Q.** How did the IC50 (HepG2) turn out when CCOC(=O)/C(C)=C/[C@H](C(C)C)N(C)C(=O)[C@@H](NC(=O)[C@@H](NC)C(C)(C)c1ccc2ccccc2c1)C(C)(C)C was run?
**A.** Its IC50 is 13 nM.

**Q.** What about the IC50 (KB) of the same compound?
**A.** Its IC50 is 13 nM.

**Q.** Which results are given for CCOC(=O)/C(C)=C/[C@H](C(C)C)N(C)C(=O)[C@@H](NC(=O)[C@H](NC)C(C)(C)c1ccc2ccccc2c1)C(C)(C)C?
**A.** IC50 (HepG2): 144 nM; IC50 (KB): 181 nM

**Q.** Which IC50 (HepG2) does the source give for CN[C@H](C(=O)N[C@H](C(=O)N(C)[C@H](/C=C(\C)C(=O)O)C(C)C)C(C)(C)C)C(C)(C)c1ccc(Br)cc1 here?
**A.** The IC50 was 1.8 nM.

**Q.** And the IC50 (KB)?
**A.** The IC50 was 1.7 nM.

**Q.** For CN[C@@H](C(=O)N[C@H](C(=O)N(C)[C@H](/C=C(\C)C(=O)O)C(C)C)C(C)(C)C)C(C)(C)c1ccc(Br)cc1, which IC50 (HepG2) is on record?
**A.** The IC50 was 13 nM.

**Q.** And the IC50 (KB)?
**A.** Its IC50 is 11 nM.

**Q.** What does the source list for CN[C@H](C(=O)N[C@H](C(=O)N(C)[C@H](/C=C(\C)C(=O)O)C(C)C)C(C)(C)C)C(C)(C)c1coc2ccccc12?
**A.** IC50 (HepG2): 1.9 nM; IC50 (KB): 1.7 nM

**Q.** With CN[C@@H](C(=O)N[C@H](C(=O)N(C)[C@H](/C=C(\C)C(=O)O)C(C)C)C(C)(C)C)C(C)(C)c1coc2ccccc12 as the compound, how does the IC50 (HepG2) read?
**A.** Its IC50 is 37 nM.

**Q.** What about the IC50 (KB) of the same compound?
**A.** Its IC50 is 43 nM.

**Q.** For CN[C@H](C(=O)N[C@H](C(=O)N(C)[C@H](/C=C(\C)C(=O)O)C(C)C)C(C)(C)C)C(C)(C)c1ccc2ccccc2c1, which IC50 (HepG2) is on record?
**A.** Its IC50 is 1.9 nM.

**Q.** And the IC50 (KB)?
**A.** The IC50 was 1.9 nM.

**Q.** For CN[C@@H](C(=O)N[C@H](C(=O)N(C)[C@H](/C=C(\C)C(=O)O)C(C)C)C(C)(C)C)C(C)(C)c1ccc2ccccc2c1, which IC50 (HepG2) is on record?
**A.** The IC50 was 34 nM.

**Q.** And the IC50 (KB)?
**A.** The IC50 was 14 nM.
